Measurements: patent US20130310356A1, “METHOD FOR TREATING BRAIN CANCER” (Niiki Pharma Acquisition Corp. 2, priority 2010, published 2013)

Legend:
[1] = tested on: U373; details: cited from earlier work
[2] = tested on: human glioblastoma cell line U251; experiment: ATCC MTT Cell Proliferation Assay, U251; assay type: cell-based; details: U251, 72 hours treatment
Description: Tris(8-quinolinolato)gallium(III) and temozolomide were tested in human glioblastoma cell line U251 (which is resistant to BCNU, See Beljanski et al., Anticancer Res., 13(6A):2301-8 (1993)). Specifically, ATCC's MTT Cell Proliferation Assay® was performed using glioblastoma cell line U251. Stock cultures were allowed to grow to 70-80% confluence for this study. The anti-proliferative activity of tris(8-quinolinolato)gallium(III) or temozolomide against the cell line was evaluated in vitro using the ATCC's MTT Cell Proliferation Assay (Catalog No. 30-1010K). Cultures were maintained in a 37° C. humidified 5% CO2/95% air atmosphere. The cells were treated with tris(8-quinolinolato)gallium(III) or temozolomide at 1,000 μM, or a series of 4x dilutions thereof (250 μM, 62.5 μM, etc.). 100 μl of medium was removed from each well at 72 hours post-treatment and 10 μl MTT reagent was added to each well. The plates were incubated at 37° C. for 4 hours and then 100 μl of detergent was added. The plates were left overnight at room temperature in the dark and was read on a plate reader using SoftMax® Pro (version 5.2, Molecular Devices).
The absorbance data was analyzed as follows: Absorbance values were converted to Percent of Control and plotted against test agent concentrations for IC50 calculations using SoftMax® Pro (version 5.2, Molecular Devices). The plate blank signal average was subtracted from all wells prior to calculating the Percent of Control. Percent of Control values were calculated by dividing the absorbance values for each test well by the No Drug Control average (column 11 values; cells +vehicle control) and multiplying by 100. Plots of Compound Concentration versus Percent of Control were analyzed using the 4-parameter equation to obtain IC50 values and other parameters that describe the sigmoidal dose response curve.
The IC50 value for the test agent was estimated by curve-fitting the data using the following four parameter-logistic equation: […]

[3] = tested on: T98G; details: cited from earlier work
[4] = tested on: U87; details: cited from earlier work
[5] = tested on: glioma cell line U87; experiment: 3-dimentional tumor model (HuBiogel), MTT assay and Calcein AM live-cell staining; assay type: cell-based
Description: The compound tris(8-quinolinolato)gallium(III) was tested in a 3-dimentional tumor model derived from glioma cell line U87. Specifically, cells were trypsinized, washed, counted by trypan blue exclusion. Tumor beads were then prepared by mixing 20,000 cells/10 μl of HuBiogel (4 mg/mL) (See U.S. patent application Ser. No. 10/546,506, which is incorporated herein by reference). The 3-D tumor beads were cultivated for 72 hours in multi-well plates with complete media (10% FBS) in a 37° C. incubator +5% CO2. Mini-tumors were treated with various concentrations of the test compound tris(8-quinolinolato)gallium(III) in media (final 0.2-0.3% DMSO) or control (DMSO). Repeated drug treatment was done by removing the culture media and replacing with fresh media with drug compound or DMSO. On Day 3, MTT assay and live-cell staining with Calcein AM were performed (5 beads/assay set).
Statistical analysis of data sets (Average, T-test, GI-50) was performed using MS-Excel program. The average GI-50 (the drug concentration required for growth inhibition at 50%) is 0.94 μM.

[6] = tested on: U87; experiment: MTT assay, glioblastoma cell line U87; assay type: cell-based
Description: (§1) To test the activities of tris(8-quinolinolato)gallium(III) (“drug”), MTT assays were performed using glioblastoma cell lines. Cells were plated (2×10^3 cells in 100 μl/well) in 96-well plates and allowed to recover for 24 hours. The drug was added in another 100 μl growth medium and incubated with cultured cells for 3 hours before the cell culture medium was replaced to remove the drug. Cell death was measured 72 hours after the initial incubation by MTT assay following the manufacturer's recommendations (EZ4U, Biomedica, Vienna, Austria).

[7] = tested on: ACHU; experiment: MTT assay, glioblastoma cell line ACHU; assay type: cell-based; details: drug incubated 3 hours, MTT 72 hours after initial incubation
Description: as §1

[8] = tested on: U373; experiment: MTT assay, glioblastoma cell line U373; assay type: cell-based; details: drug incubated 3 hours, MTT 72 hours after initial incubation
Description: as §1

[9] = tested on: T98G; experiment: MTT assay, glioblastoma cell line T98G; assay type: cell-based
Description: as §1

| SMILES | BCNU (% cytostasis with 50 μg/ml BCNU) [1] | IC50 [2] | BCNU (% cytostasis with 50 μg/ml BCNU) [3] | BCNU (% cytostasis with 50 μg/ml BCNU) [4] | IC50 ([2]; Homo sapiens, U-251) | GI50 ([5]; U87 3-D tumor beads in HuBiogel, MTT on Day 3, read-out: average GI-50 (drug concentration required for growth inhibition at 50%)) | tumor killing in live-cell staining/image analysis ([5]; U87 3-D tumor beads, Calcein AM, Day 3) | tumor proliferation activity ([5]; U87 3-D tumor beads, MTT, Day 3) | activity against cell line ([6]; U87, relatively resistant to BCNU) | IC50 ([6]; U87, drug incubated 3 hours, MTT 72 hours after initial incubation) | IC50 [7] | IC50 [8] | IC50 ([9]; drug incubated 3 hours, MTT 72 hours after initial incubation) | activity in cells ([9]; resistant to temozolomide) |
| --- | --- | --- | --- | --- | --- | --- | --- | --- | --- | --- | --- | --- | --- | --- |
| O=NN(CCCl)C(=O)NCCCl [BCNU] | 30.4 ± 8.6% | 53.7 µM | 37.5 ± 8.6% | 18.5 ± 8.2% |  |  |  |  |  |  |  |  |  |  |
| Cn1nnc2c(C(N)=O)ncn2c1=O [temozolomide] |  |  |  |  | 283 µM |  |  |  |  |  |  |  |  |  |
| [Ga+3].[O-]c1cccc2cccnc12.[O-]c1cccc2cccnc12.[O-]c1cccc2cccnc12 [tris(8-quinolinolato)gallium(III)] |  | 4.04 µM |  |  |  | 0.94 µM | dose-dependent tumor killing | significantly inhibited | active | 0.94 µM | 0.3 µM | 2.5 µM | 2 µM | active |
